Reference: patent US5587490A, “Method of inactivation of viral and bacterial blood contaminants” (Credit Managers Association of California, priority 1993, dated 1996)
Read-outs that look alike come from different tables or passages of the source.

What was measured:
bacterial phage λ = assay: UV inactivation of lambda phage in plasma or fetal bovine serum; type: cell-based; details: Escherichia phage Lambda, light or radiation study, 0.5 h; Fetal bovine serum, 0.03 mg/mL, UVA 30 min. (8.4 J/cm^2); read-out: Viral Reduction (log), λ
Experimental: A stock solution of bacterial phage λ is added to plasma to obtain final titre of 1.2×10^8 PFU/ml and compound No. 3 (structure given above) at 0.1 mg/ml concentration. The mixture was transferred to Pyrex glass photolysis cells and exposed to UV (300-360 nm blue lamp) for 5 minutes. After UV irradiation treatment the final viral titre and Factor VIII activity were measured as described earlier. […] About 3-6 logs of increased viral inactivation was obtained with protein coated viruses using a sensitizer. Only 10% of Factor VIII activity was recovered after viral inactivation treatment.
(§1) Viral inactivation in FBS was carried out in 100 mL serum samples in 225 cm^2 tissue culture flask in the presence of sensitizer 8B (0.03 mg/mL). The sample was exposed to UVA light from top (3.6 mW/cm^2) and bottom (3.4 mW/cm^2) while continuously mixing on an orbital shaker for 30 min. (8.4 J/cm^2). Human plasma was irradiated in a Pyrex glass photolysis cell in the presence of sensitizer 8 (0.1 mg/mL) for 5 min. Inactivation of various bacteriophages were carried out using brominated psoralens in combination with UVA light. The results in Table 5 below clearly indicate that 5-7 logs of viral reduction was obtained with various phage (enveloped and non-enveloped) in human plasma fractions and fetal bovine serum products.

phi 6 phage [1] = assay: UV inactivation of phi 6 in human plasma or fetal bovine serum; type: cell-based; details: light or radiation study, 0.5 h; Fetal bovine serum, 0.03 mg/mL, UVA 30 min. (8.4 J/cm^2); read-out: Viral Reduction (log), phi 6
Experimental: as §1

platelets [2] = type: cell-based, human
Experimental: (§2) Human platelet concentrates are mixed with phi 6 bacteriophage, with or without sensitizer, then exposed to U.V. light. Cell quality assays after treatment include morphology score conducted by visual inspection using a light microscope (using a Kunicki scoring system), hypotonic shock response (HSR), aggregation response induced by addition of ADP measured in an aggregometer, and cell number count.
(§3) 1. Soft spin platelet unit at 1000 rpm for 5 min to remove RBC.
(§4) 2. Dilute concentrated platelets with spun autologous plasma to obtain a conc. of 500×10^6 cells/ml.
(§5) 3. Add 5×10^6 of .phi.6 to the platelet suspension and mix gently.
(§6) 4. Add sensitizer to the platelet suspension and incubate for 15 min while protecting from light. Control samples have PBS added.
(§7) 5. Pipet 2 ml aliquots into small plastic petri dishes and irradiate with UV while rotating samples at 100 rpm on a shaker. Irradiate samples without cover.
(§8) 6. Transfer irradiated samples to 15 ml plastic centrifuge tubes.
(§9) 7. Determine morphology, HSR, ADP, Viral inactivation, cell count.
The vital inactivation values and in vitro properties of platelets subjected to viral inactivation treatment using various derivatives of psoralen are summarized in Table 1.
(§10) Single unit platelet concentrates were obtained 24 hours after collection from certified blood banks. The platelet were subjected to soft spin to remove residual RBC and about 6 logs of .phi.6 phage and sensitizer 8B were added in PBS solution to obtain 0.03 mg/mL final sensitizer concentration. The samples were transferred to Stericon™ polyolefin bag (which transmits 60% of UVA light) and irradiated from top (3.6 mW/cm^2) and bottom (3.4 mW/cm^2) in a home made reactor for 10 min. The bags were continuously mixed on extended glass platform attached to orbital shaker. The viral inactivation values and in vitro properties of platelet concentrates were monitored for 2 days after the treatment.

phi 6 bacteriophage = assay: UV inactivation of phi 6 in platelet preparations; type: cell-based; details: for log reduction at 30 µg/mL: Bacteriophage sp., Platelet, light or radiation study, 10 min
Experimental: as §2, §3, §4, §5, §6, §7, §8, §9
To test the viral inactivation efficiency of brominated sensitizers, platelet preparations (2 mL, PRP) were spiked with .phi.6 phage and brominated psoralen (8B) and non-brominated psoralen(8C) were added to obtain final sensitizer concentration of 0.1 mg/mL. The samples were exposed to UVA light in a home made reactor consisting of 4 UVA lamps for the indicated time periods. The petri dishes containing samples were mixed on an orbital shaker during UVA exposure. The UVA light intensity at the sample position was measured at 3.3 mW/cm^2. The residual viral titer after each time point was measured by plaque method The viral reduction values are illustrated in FIG. 26.
Single unit platelet concentrates were obtained 24 hours after collection from certified blood banks. […] The viral inactivation values and in vitro properties of platelet concentrates were monitored for 2 days after the treatment.

platelet concentrates = assay: pH of platelet concentrates after UV treatment; type: cell-based, human; details: Treated, UVA 10 min
Experimental: as §10

platelets [3] = assay: Platelet cell count after UV treatment; type: cell-based, human; details: Treated, UVA 10 min
Experimental: as §10

phi 6 phage [4] = assay: UVA inactivation of phi 6 in packed red cells; type: cell-based
Experimental: Units of packed red cells were transferred to Stericon™ red cell freezing bags and the hematocrits were adjusted to 60% with PBS. […] The samples were mixed continuously during UVA exposure on an orbital shaker. The final viral titer in the sample was determined by the plaque method. In vitro biochemical and biophysical properties of treated red cells were monitored for 7 day following the treatment.
The viral inactivation kinetics in red cells is dependent on the intensity of the UVA light source. The data in Table 4 below indicate that the time required to achieve 6 logs of viral reduction varies with the intensity of the UVA light source used.

red cells = assay: Red cell in vitro properties following UVA viral inactivation treatment; type: cell-based, human; details: 0.3 mg/mL
Experimental: Units of packed red cells were transferred to Stericon™ red cell freezing bags and the hematocrits were adjusted to 60% with PBS. The samples were spiked with 5×10^6 PFU/mL .phi.6 phage and 0.3 mg/mL sensitizer 8B. The contents of the bag was exposed to UVA light from top (3.6 mW/cm^2) and bottom (3.4 mW/cm^2) for 6 hours (151.2 J/cm^2). The samples were mixed continuously during UVA exposure on an orbital shaker. The final viral titer in the sample was determined by the plaque method. In vitro biochemical and biophysical properties of treated red cells were monitored for 7 day following the treatment.

[5] = system: Salmonella typhimurium TA98; assay: Ames mutagenicity plate incorporation assay, TA98; type: cell-based; details: average of duplicate plates
[6] = system: Salmonella typhimurium TA100; assay: Ames mutagenicity plate incorporation assay, TA100; type: cell-based; details: average of duplicate plates
[7] = system: Salmonella typhimurium TA1535; assay: Ames mutagenicity plate incorporation assay, TA1535; type: cell-based; details: average of duplicate plates
[8] = system: Salmonella typhimurium TA1537; assay: Ames mutagenicity plate incorporation assay, TA1537; type: cell-based; details: average of duplicate plates
[9] = system: Salmonella typhimurium TA1538; assay: Ames mutagenicity plate incorporation assay, TA1538; type: cell-based; details: average of duplicate plates
salmonella mutants = assay: Standard Ames mutagenicity test, overall outcome; type: cell-based, Salmonella typhimurium; details: 0.6 mg/mL; in words

CC[N+](CC)(CC)CCCOc1c2occc2c(Br)c2ccc(=O)oc12 [Sensitizer 8B]
log reduction at 30 µg/mL (bacterial phage λ): 6.6
log reduction at 30 µg/mL (phi 6 phage [1]): 6.5
ADP Agg. (platelets [2]): 26 ± 10
fold improvement in the level of viral inactivation, brominated (8B) vs non-brominated (8C) (phi 6 bacteriophage; 0.1 mg/mL, UVA 3.3 mW/cm^2): ≤ 400 fold
log reduction at 30 µg/mL (phi 6 bacteriophage; read-out: V.I (log10)): 5.3
log reduction at 30 µg/mL (phi 6 bacteriophage; read-out: viral reduction): > 5.3
pH (platelet concentrates; 0 Hour): 7.2
pH (platelet concentrates; 24 Hours): 7.1
pH (platelet concentrates; 48 Hours): 6.8
Cell count (platelets [3]; 0 Hour): 474
Cell count (platelets [3]; 24 Hours): 499
Cell count (platelets [3]; 48 Hours): 506
Time Required for 6.0 logs V.I. (phi 6 phage [4]; UV Reactor 1, Top, 3.3 mW/cm^2, 0.1 mg/mL, n = 1): 16.4 Hours
Time Required for 6.0 logs V.I. (phi 6 phage [4]; UV Reactor 2, Top + Bottom, 3.6/3.4 mW/cm^2, 0.1 mg/mL, n = 9): 7.0 ± 1.2 Hours
Time Required for 6.0 logs V.I. (phi 6 phage [4]; UV Reactor 3, Top + Bottom, 40/40 mW/cm^2, 0.1 mg/mL, n = 3): 1.3 ± 0.4 Hours
alterations in in vitro biochemical and biophysical properties (red cells; UVA 6 hours, in words): without any significant alterations in in vitro biochemical and biophysical properties
% Hemochrome (red cells; Treated, Day 1, UVA 6 hours): 1.9%
DI Max % control (deformability index) (red cells; Treated, Day 1, UVA 6 hours): 97.4 % control
MCV (red cells; Treated, Day 1, UVA 6 hours (151.2 J/cm^2)): 88.8
% Hemochrome (red cells; Treated, Day 2, UVA 6 hours): 0.6%
DI Max % control (deformability index) (red cells; Treated, Day 2, UVA 6 hours): 99.6 % control
% Hemochrome (red cells; Treated, Day 7, UVA 6 hours): 0.2%
DI Max % control (deformability index) (red cells; Treated, Day 7, UVA 6 hours): 99.0 % control
Number of Revertant Colonies ([5]; w/S-9): 83
Number of Revertant Colonies ([5]; without S-9): 55
Number of Revertant Colonies ([6]; w/S-9): 245
Number of Revertant Colonies ([6]; without S-9): 164
Number of Revertant Colonies ([7]; w/S-9): 197
Number of Revertant Colonies ([7]; without S-9): 173
Number of Revertant Colonies ([8]; w/S-9): 26
Number of Revertant Colonies ([8]; without S-9): 36
Number of Revertant Colonies ([9]; w/S-9): 25
Number of Revertant Colonies ([9]; without S-9): 22
Ames mutagenicity (salmonella mutants): non-mutagenic
